We go through one compound from patent US20090082322A1, “Gender Differences in Experimental Aortic Aneurysm Formation” (THE REGENTS OF THE UNIVERSITY OF MICHIGAN, priority 2004, published 2009).

The structures appear in SMILES notation.

In experiment [1] the test system is elastase-perfused infrarenal abdominal aorta of male rats. Put plainly: Elastase perfusion aneurysm model after estrogen pellet implantation, aortic diameter. To be noted: 0.1-mg 21-day slow-release pellet s.c. In kind it is in vivo, Sprague-Dawley rats. The method, then:
Pancreatic porcine elastase perfusion of the rat aortas was performed as described previously. (Anidjar S, et al., Circulation, 82:973-981 (1990)). Male and female rats (n=15, each) were anesthetized with 2-2.5% isoflurane inhalation, and the infrarenal abdominal aorta was isolated under sterile conditions. Digital video micrometry was performed to directly measure outer aortic diameter. Specifically, images of the aorta were obtained using a Spot Insight Color Optical Camera (Diagnostic Instruments, Sterling Heights, Mich.) attached to an operating microscope (Nikon, Melville, N.Y.). Aortic diameters were then measured at the level of the left renal vein, the mid-infrarenal aorta, and the aortic bifurcation in triplicate using Image Pro Express software (Media Cybernetics, Inc, Silver Spring, Md.). Temporary proximal and distal aortic control was obtained using temporary 4-0 cotton suture loops, following which an aortotomy was made near the aortic bifurcation with a 30-gauge needle. […] At 7 or 14 days, aortas were re-exposed and aortic diameters were re-measured in vivo. […] The infrarenal aorta was then removed and subjected to histological study, immunohistochemistry, and quantitative polymerase chain reaction (PCR). […]

Experiment [2] concerns ED-1-positive macrophages / elastin in aortic wall. Put plainly: Histology and ED-1 macrophage immunohistochemistry of elastase-perfused aortas. In kind it is in vivo, Sprague-Dawley rats. From the text:
In other experiments, male rats were randomized to implantation of an estrogen pellet or sham implantation (n=13, each). The former involved the subcutaneous implantation of a 21-day slow-release 0.1-mg 17-β-estradiol pellet (Innovative Research of America, Sarasota, Fla.) in the posterior neck. Sham rats underwent the same implantation procedure without insertion of any pellet. This particular estradiol dose results in serum estradiol levels at 2 to 3 weeks of 44.7±6.1 pg/mL compared with 15.0±2.2 pg/mL in control rats (P<0.05). Rat aortas from both groups were subjected to elastase perfusion 5 days later. The aortas were then removed for study 7 or 14 days after elastase perfusion. All excised aortas were fixed in 10% formalin for 18 hours, followed by immersion in 70% ethanol for 24 hours. Aortas were then imbedded in paraffin and 4-μm sections were prepared with hematoxylin and eosin and Verhoeff-Van Gieson stains. Immunohistochemistry was undertaken after deparaffinization, rehydration, and unmasking using Trilogy (Cell Marque Corp, Hot Springs, Ariz.) in a Princess model pressure cooker (Cell Marque). Endogenous peroxidase activity was then blocked using 3% hydrogen peroxide in methanol. To help ensure that rejection was not occurring in elastase-perfused or transplanted animals, anti-T lymphocyte immunohistochemistry was performed. […]

Another experiment concerns MMP-2. Put plainly: MMP-2 activity in conditioned media of IL-1β stimulated male RASMCs. The conditions noted are these: 1×10^−10 to 1×10^−6 molar, with IL-1β. In kind it is cell-based, rat. The method, then: Experiment I: Adult male and female rat aortic smooth muscle cells (RASMCs) were grown in Dulbecco's modified Eagle medium (DMEM) with 10% fetal bovine serum (FBS). RASMCs at passages four through eight were stimulated in serum-free media for 48 hours with IL-1β at doses encountered in human aortic aneurysms (2 ng/mL). The culture media was collected, and mRNA was extracted from the RASMCs. After reverse transcription to cDNA, gene expression of MMP-2 and TIMP-2 (a major MMP-2 inhibitor) was measured by real-time polymerase chain reaction. MMP-2 protein levels in conditioned media were measured by Western blotting, with MMP-2 and TIMP-2 activity quantified by standard and reverse gelatin zymography. Experiment II: Male RASMCs were incubated in DMEM containing 17-β-estradiol and IL-1β, MMP-2 activity in the conditioned media was then determined.

In another experiment the test system is AAAs. To be noted: apolipoprotein E-deficient murine model; cited from earlier work.

Take `C[C@]12CC[C@@H]3c4ccc(O)cc4CC[C@H]3[C@@H]1CC[C@@H]2O` [17-β-estradiol]: in experiment [1] (7 days after elastase perfusion, sham 197%±39%, P=0.010), the “aortic expansion (increase in aortic diameter)” value is listed as 124%±19. Also, in experiment [1] (14 days after elastase perfusion, sham 538%±105, P=0.0226), the “aneurysm size (increase in aortic diameter)” value is listed as 241%±57. Moreover, in experiment [2] (estradiol treated male rats' aortas vs sham), the elastin fragmentation entry is recorded as “less prominent”. Also, the ED-1-positive cell counts in experiment [2] (male rats receiving estradiol, sham 5.2±0.5, P=0.0006) amounted to 1.8±0.3 cells/HPF. Besides, in the experiment on MMP-2, the “MMP-2 activity in male RASMCs” value is given as “not altered”. The “development of AAAs” value in the experiment with AAAs is on record as “attenuate the development of AAAs”.
